This passage reports IC50, AC50 and EC50 results from ChEMBL document CHEMBL1201862, “PubChem BioAssay data set” (2004).

For orientation: IC50 means the point on the concentration scale where inhibition reaches its midpoint. Broadly, the AC50 is the concentration at which the activity in the assay is half-maximal.

Activity calls are given as the source filed them.

In one assay the target is Large T antigen (Simian virus 40, UniProt P03070). The class given is functional, Betapolyomavirus macacae.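 Also: Confirmatory-stage PubChem screen for compounds that inhibit SV40 T antigen.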
Assay [1] deals with T1, Rac GTPase-activating protein 1 (Homo sapiens, UniProt Q9H0H5).
T1 sequence (Q9H0H5 whole entry): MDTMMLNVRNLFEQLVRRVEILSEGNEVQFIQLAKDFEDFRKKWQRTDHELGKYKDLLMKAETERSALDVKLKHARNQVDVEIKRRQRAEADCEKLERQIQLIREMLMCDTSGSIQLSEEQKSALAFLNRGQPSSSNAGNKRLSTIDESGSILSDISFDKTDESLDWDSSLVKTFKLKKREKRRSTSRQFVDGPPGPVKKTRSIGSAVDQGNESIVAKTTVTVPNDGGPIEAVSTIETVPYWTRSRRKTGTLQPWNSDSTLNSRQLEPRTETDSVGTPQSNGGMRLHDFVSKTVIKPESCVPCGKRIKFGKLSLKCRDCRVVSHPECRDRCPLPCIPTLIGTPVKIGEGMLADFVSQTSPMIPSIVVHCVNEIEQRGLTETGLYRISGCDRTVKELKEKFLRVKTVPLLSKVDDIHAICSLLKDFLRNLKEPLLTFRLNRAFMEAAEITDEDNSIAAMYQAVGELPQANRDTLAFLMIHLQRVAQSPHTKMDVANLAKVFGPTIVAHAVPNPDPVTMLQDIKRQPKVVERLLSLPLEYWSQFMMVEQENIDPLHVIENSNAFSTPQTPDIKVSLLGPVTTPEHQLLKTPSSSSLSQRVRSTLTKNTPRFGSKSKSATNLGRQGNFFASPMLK
Briefly: blockers of MgcRacGAP-driven Rac1 GTP hydrolysis – biochemical, ADP Hunter fluorescence, primary and confirmatory, confirmation (AID 624330). The class given is functional.

In a further assay the target is Genome polyprotein (dengue virus type 2, UniProt P29990). In words: flavivirus cap methylation enzyme inhibition – biochemical, confirmation dose response, primary screen (AID 588689). The class given is functional.
The next assay deals with T2, Protein skinhead-1 (Caenorhabditis elegans, UniProt P34707).
T2 sequence (P34707 whole entry): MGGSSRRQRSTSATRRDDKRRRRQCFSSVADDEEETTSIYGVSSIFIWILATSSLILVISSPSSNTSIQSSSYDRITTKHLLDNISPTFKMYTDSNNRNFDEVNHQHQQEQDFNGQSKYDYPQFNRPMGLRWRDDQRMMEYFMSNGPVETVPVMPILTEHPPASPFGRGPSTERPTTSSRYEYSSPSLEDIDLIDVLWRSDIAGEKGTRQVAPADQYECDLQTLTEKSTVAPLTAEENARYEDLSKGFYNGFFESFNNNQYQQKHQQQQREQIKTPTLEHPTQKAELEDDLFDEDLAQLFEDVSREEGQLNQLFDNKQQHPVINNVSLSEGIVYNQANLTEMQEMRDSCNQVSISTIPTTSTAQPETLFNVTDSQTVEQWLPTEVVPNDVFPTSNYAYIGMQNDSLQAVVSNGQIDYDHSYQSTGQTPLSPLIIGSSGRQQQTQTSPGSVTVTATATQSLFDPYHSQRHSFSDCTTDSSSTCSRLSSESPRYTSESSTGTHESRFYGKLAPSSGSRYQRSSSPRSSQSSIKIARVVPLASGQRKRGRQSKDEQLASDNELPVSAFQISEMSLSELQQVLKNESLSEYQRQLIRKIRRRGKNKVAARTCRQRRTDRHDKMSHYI
The class given is functional.

In assay [2] the target is T3, Replicative DNA helicase DnaB (Mycobacterium tuberculosis, UniProt P9WMR3).
T3 sequence (P9WMR3 whole entry): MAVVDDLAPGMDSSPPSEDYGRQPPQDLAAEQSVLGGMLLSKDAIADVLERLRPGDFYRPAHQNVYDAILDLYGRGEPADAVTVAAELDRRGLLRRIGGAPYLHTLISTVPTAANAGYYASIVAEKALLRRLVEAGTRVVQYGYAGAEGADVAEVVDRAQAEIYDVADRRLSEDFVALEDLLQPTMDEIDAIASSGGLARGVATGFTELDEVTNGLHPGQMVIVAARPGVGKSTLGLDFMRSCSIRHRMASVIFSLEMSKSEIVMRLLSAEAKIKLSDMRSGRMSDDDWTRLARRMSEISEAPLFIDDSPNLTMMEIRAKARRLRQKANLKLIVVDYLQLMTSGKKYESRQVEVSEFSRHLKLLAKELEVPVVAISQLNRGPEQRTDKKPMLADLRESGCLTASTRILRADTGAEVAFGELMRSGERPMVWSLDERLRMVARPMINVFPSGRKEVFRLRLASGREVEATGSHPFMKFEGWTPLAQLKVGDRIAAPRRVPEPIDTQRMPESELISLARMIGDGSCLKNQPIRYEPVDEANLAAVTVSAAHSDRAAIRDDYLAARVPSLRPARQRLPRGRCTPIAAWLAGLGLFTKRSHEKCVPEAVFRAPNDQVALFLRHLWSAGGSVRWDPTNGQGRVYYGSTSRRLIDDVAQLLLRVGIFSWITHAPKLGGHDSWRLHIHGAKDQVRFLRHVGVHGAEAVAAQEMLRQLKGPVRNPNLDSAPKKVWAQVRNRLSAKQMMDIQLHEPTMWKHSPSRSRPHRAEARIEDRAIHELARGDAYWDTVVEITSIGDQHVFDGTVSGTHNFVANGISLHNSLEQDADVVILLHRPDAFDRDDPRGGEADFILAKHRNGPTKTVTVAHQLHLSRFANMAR
In words: DnaB intein splicing inhibitors, dose response, biochemical, cell-free fluorescence (AID 449749). It is filed as functional.

For another assay, the target named is T4, Protein RecA (Mycobacterium tuberculosis, UniProt P9WHJ3).
T4 sequence (P9WHJ3 whole entry): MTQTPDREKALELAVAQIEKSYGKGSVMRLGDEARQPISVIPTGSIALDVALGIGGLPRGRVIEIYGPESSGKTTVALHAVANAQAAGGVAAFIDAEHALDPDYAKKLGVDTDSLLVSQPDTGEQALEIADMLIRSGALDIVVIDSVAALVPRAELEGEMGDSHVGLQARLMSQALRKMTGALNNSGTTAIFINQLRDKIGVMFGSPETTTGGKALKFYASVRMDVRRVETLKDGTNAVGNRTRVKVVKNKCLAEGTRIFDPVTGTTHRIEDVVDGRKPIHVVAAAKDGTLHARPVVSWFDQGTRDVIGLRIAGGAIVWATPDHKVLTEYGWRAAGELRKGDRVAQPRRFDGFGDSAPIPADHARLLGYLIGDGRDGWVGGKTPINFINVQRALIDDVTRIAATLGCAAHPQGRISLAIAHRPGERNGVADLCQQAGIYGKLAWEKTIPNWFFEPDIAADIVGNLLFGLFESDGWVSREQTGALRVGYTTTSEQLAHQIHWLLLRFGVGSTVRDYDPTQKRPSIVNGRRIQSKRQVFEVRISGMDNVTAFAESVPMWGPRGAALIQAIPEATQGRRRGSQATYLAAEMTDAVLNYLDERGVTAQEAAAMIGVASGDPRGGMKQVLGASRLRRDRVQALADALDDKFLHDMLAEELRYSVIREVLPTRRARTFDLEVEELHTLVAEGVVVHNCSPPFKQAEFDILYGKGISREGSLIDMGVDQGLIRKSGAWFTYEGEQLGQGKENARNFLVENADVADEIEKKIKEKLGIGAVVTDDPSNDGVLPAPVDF
In words: Fluorescence Cell-Free Homogeneous Dose Retest to Identify Inhibitors of RecA-Intein Splicing Activity. [Related pubchem assays (depositor defined):AID2097, AID2223, AID489010, AID492950]. It is filed as functional.

The target of assay [3] is T5, Zinc finger protein mex-5 (Caenorhabditis elegans, UniProt Q9XUB2).
T5 sequence (Q9XUB2 whole entry): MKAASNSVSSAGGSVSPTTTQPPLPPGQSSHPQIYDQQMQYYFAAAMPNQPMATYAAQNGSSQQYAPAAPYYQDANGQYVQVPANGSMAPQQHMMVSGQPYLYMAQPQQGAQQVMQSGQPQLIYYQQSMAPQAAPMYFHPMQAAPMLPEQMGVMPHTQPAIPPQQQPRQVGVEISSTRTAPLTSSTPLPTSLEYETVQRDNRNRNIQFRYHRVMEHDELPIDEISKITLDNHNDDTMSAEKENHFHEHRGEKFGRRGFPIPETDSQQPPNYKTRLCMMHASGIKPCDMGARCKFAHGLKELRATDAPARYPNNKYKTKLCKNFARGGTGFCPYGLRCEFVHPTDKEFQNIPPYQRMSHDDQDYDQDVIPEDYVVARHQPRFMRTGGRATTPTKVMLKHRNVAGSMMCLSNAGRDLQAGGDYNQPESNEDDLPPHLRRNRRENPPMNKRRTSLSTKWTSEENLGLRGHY
Briefly: potency of MEX-5 RNA-binding blockers – biochemical, C. elegans, fluorescence polarization, dose response (AID 1960). (Polarisation of emitted light reports the rotation of a fluorescent probe.)

The nature of assay [4]: Luminescence Cell-Based Dose Confirmation HTS to Identify Activators of 5'UTR Stem-Loop Driven Alpha-Synuclein mRNA Translation in H4 Neuroglioblastoma Cells. [Related pubchem assays: 1829 (Project Summary), 1814 (Primary HTS)]. The class given is functional.
Assay [5] is described as follows: Luminescence Cell-Based Dose Response HTS to Identify Activators of Luciferase Translation or Activity in H4 […] Cells. [Related pubchem assays: 1829 (Project Summary), 1814 (Primary HTS)]. The class given is functional.
Another assay concerns H4. Briefly: Luminescence Cell-Based Dose Response HTS to Identify Activators of 5'UTR Stem-Loop Driven Prion Protein mRNA Translation in H4 Neuroglioblastoma Cells. [Related pubchem assays: 1829 (Project Summary), 1814 (Primary HTS)]. It is filed as functional. The settings on record: Homo sapiens.
The target of assay [6] is T6, RNA-binding protein pos-1 (Caenorhabditis elegans, UniProt G5EF15).
T6 sequence (G5EF15 whole entry): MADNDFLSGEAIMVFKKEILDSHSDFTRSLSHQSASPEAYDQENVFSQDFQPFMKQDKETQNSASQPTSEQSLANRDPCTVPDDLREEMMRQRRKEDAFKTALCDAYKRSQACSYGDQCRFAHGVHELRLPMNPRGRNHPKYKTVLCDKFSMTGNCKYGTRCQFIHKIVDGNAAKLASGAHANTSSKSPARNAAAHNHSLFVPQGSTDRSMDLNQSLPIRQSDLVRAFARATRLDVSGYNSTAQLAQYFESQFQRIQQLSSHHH
In words: disruptors of C. elegans POS-1 RNA interaction – biochemical, fluorescence polarization, dose response (AID 1964).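 Also: purified POS-1 fused to maltose binding protein made in E. coli; potency of compounds blocking POS-1 binding to fluorescent RNA.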

Assay [7] has as its target T7, Corticotropin-releasing factor receptor 2/Corticotropin-releasing factor-binding protein (Homo sapiens, UniProt P24387+Q13324).
T7 sequence (Q13324 whole entry): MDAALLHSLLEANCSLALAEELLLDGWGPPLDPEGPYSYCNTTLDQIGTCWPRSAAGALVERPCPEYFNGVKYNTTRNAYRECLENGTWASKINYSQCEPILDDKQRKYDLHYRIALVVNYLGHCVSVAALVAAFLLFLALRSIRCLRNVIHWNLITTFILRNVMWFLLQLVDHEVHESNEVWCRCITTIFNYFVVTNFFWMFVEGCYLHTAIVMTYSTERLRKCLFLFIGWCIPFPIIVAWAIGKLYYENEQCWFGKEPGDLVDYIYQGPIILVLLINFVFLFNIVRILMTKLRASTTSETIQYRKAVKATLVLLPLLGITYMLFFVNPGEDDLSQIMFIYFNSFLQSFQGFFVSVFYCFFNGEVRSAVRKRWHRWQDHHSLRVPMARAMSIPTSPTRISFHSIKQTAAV
T7 sequence (P24387 whole entry): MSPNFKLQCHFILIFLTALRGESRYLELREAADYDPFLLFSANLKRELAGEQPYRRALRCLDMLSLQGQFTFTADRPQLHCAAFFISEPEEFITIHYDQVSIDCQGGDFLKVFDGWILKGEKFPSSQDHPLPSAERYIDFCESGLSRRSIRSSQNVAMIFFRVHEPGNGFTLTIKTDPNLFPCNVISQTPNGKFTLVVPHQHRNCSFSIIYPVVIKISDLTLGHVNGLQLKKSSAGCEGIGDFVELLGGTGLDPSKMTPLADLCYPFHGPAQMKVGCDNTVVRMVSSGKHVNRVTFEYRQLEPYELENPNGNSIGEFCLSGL
Briefly: activators of CRF receptor 2 with binding protein – uHTS hits, confirmation (AID 602473). As to conditions: read-out: EC50_Mean. The class given is functional.

For assay [8], the target named is FAD-linked sulfhydryl oxidase ALR (Homo sapiens, UniProt P55789). Briefly: ALR-catalysed DTT oxidation blockers – biochemical, H2O2 detection, luminescence, cherry-pick, dose response (AID 493248).
Chain of FAD-linked sulfhydryl oxidase ALR (P55789 whole entry): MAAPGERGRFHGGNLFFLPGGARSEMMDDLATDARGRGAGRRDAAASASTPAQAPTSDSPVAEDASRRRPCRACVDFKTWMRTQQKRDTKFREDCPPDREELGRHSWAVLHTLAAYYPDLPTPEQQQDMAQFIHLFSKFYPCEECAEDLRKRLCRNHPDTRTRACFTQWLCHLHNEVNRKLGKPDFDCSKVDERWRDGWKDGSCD

Chain of Large T antigen (P03070 whole entry): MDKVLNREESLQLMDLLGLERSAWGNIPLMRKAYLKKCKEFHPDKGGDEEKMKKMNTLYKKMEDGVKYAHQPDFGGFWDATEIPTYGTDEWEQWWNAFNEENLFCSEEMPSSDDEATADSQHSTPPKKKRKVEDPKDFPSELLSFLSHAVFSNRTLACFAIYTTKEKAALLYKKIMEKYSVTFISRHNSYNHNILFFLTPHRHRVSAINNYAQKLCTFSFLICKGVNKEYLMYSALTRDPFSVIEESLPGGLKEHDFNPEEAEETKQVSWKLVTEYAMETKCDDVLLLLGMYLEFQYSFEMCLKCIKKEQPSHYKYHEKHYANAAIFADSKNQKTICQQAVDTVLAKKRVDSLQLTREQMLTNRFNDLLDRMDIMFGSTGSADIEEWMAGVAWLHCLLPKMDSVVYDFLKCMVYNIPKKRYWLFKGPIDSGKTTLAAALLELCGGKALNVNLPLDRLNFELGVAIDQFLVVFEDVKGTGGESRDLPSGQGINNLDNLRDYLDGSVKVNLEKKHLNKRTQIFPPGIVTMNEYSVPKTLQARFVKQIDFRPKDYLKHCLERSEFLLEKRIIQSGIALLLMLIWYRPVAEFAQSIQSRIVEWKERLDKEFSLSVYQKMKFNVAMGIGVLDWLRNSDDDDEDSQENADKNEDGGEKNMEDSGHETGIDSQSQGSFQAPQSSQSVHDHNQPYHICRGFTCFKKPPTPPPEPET
Chain of Genome polyprotein (P29990 2492-3391 limits assumed): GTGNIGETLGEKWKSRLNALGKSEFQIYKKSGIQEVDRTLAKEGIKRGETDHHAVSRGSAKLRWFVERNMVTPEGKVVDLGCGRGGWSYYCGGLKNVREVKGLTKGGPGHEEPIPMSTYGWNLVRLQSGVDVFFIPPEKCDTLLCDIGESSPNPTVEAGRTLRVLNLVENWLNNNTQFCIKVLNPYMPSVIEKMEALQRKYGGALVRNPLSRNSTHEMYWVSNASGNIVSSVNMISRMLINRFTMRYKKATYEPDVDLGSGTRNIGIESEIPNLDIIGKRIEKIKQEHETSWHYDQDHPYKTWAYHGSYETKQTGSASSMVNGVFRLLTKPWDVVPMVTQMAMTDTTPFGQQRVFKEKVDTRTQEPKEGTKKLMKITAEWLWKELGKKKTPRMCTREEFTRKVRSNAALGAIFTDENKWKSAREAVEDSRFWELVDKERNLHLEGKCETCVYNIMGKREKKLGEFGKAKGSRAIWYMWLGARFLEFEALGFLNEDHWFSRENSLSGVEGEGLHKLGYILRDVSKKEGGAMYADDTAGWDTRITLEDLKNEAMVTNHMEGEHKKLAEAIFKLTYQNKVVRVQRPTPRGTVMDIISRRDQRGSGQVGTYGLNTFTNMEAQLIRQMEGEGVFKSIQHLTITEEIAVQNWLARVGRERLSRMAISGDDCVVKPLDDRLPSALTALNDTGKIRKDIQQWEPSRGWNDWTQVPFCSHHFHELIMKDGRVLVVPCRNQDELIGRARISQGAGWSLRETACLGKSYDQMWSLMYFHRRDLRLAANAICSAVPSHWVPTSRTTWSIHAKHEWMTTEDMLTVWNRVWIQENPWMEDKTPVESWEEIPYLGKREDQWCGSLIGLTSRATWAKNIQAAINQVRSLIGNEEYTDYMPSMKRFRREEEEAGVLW

Consider `COc1cc(/C=N/NC(=O)c2cnccn2)ccc1O`, for which the results for the IC50 (on Large T antigen; in assay [1]) were 5.52 µM (active) and 20.3 µM (active), respectively.
In the case of `CN1C(=O)C(=Cc2ccccc2Oc2ccc(Cl)cc2)C(=O)N(C)C1=O`, the IC50 on Genome polyprotein was 41.5 µM (active).
Regarding `O=C(Nc1ccc(O)cc1)C1CCCO1` (stereo not drawn), the IC50 at Large T antigen is 28.1 µM (active).
Regarding `Clc1cc(NCc2cccs2)ccc1N1CCOCC1`, the IC50 at Large T antigen is 65.2 µM (active); at Protein skinhead-1, > 100 µM (inactive).
In the case of `CN(C)c1ccc(/C=C/c2cc[n+]([O-])cc2)cc1`, the IC50 on Large T antigen is 11.4 µM (active).
As for `O=C1C(Cl)=C(N2CCOCC2)C(=O)N1c1ccc(Br)cc1`, the AC50 in assay [2] was 4.11 µM (active). For the same compound, the IC50 at Genome polyprotein is 36.2 µM (active). In addition, the EC50 on Protein RecA was 2.11 µM (active).
Take `Cc1cccc(-n2c(C)cc(C=C3C(=O)c4ccccc4C3=O)c2C)c1`: the EC50 in assay [3] is 34.7 µM (inconclusive); in [4], 54.2 µM (active); in assay [5], 11.4 µM (active); in the assay with H4 it was 7.1 µM (active); in assay [6], 46.6 µM (active); in assay [7], 12.9 µM (active).
With `COc1ccc(NC2CCCN(C(=O)CCn3cccn3)C2)cc1` (stereo not drawn), the AC50 in assay [8] is 2.78 µM (active). Also, the IC50 at Large T antigen was 9.68 µM (active).
